Measurements taken from patent publication US20210317134A1, “UBIQUITIN-SPECIFIC-PROCESSING PROTEASE 7 (USP7) MODULATORS AND USES THEREOF” (RAPT THERAPEUTICS, INC., priority 2019, published 2021).

These compounds were tested against USP7 (Homo sapiens, UniProt Q93009) (assay: USP7 inhibitory potency (Table 1)).
Type: biochemical

Sequence of USP7 (Q93009 whole entry): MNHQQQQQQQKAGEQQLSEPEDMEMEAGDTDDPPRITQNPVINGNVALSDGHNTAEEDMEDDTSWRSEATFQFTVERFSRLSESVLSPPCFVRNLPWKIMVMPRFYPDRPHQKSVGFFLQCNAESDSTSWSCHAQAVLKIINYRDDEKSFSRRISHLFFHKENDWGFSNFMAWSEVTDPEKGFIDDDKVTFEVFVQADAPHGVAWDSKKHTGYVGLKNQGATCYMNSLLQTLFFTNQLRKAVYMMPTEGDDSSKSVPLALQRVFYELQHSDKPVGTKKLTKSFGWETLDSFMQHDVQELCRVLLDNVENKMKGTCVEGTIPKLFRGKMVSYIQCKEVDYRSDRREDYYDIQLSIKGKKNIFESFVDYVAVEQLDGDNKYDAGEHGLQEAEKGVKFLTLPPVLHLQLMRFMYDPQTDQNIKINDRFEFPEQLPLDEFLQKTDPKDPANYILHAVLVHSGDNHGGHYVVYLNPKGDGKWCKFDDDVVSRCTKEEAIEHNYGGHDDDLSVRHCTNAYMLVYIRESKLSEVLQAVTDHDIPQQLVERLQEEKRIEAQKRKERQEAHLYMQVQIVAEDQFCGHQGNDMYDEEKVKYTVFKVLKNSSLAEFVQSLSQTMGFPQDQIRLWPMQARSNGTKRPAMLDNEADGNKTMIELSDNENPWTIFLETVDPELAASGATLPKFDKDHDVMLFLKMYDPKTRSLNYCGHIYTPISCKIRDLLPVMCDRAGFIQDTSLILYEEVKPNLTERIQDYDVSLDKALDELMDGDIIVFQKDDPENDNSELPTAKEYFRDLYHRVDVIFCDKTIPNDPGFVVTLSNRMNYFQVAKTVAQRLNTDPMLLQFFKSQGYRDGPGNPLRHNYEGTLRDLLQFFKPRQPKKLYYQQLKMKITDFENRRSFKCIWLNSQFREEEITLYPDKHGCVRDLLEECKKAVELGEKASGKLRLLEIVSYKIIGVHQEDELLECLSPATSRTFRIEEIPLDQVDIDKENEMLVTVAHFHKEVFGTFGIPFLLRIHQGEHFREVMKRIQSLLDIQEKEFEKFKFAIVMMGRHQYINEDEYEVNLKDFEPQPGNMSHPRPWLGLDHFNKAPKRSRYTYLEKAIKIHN

Q: Which IC50 does the source give for `CC(O)(CO)c1cc2nccc(-c3cc(Cl)cc4c3O[C@@H](C(=O)N3CCNCC3)C4)c2s1` (stereo partly drawn) [((2R)-5-chloro-7-(2-(1,2-dihydroxypropan-2-yl)thieno[3,2-b]pyridin-7-yl)-2,3-dihydrobenzofuran-2-yl)(piperazin-1-yl)methanone] here?
A: The IC50 was under 1000 nM.

Q: For `O=C([C@H]1Cc2cc(Cl)cc(-c3ccnc4cc(C(O)(CO)CCl)sc34)c2O1)N1CCNCC1` (stereo partly drawn) [((2R)-5-chloro-7-(2-(1-chloro-2,3-dihydroxypropan-2-yl)thieno[3,2-b]pyridin-7-yl)-2,3-dihydrobenzofuran-2-yl)(piperazin-1-yl)methanone], which IC50 is on record?
A: The IC50 was under 1000 nM.

Q: For `CCC(CO)c1cc2nccc(-c3cc(Cl)cc4c3O[C@@H](C(=O)N3CCNCC3)C4)c2s1` (stereo partly drawn) [((2R)-5-chloro-7-(2-(1-hydroxybutan-2-yl)thieno[3,2-b]pyridin-7-yl)-2,3-dihydrobenzofuran-2-yl)(piperazin-1-yl)methanone], which IC50 is on record?
A: The IC50 was under 1000 nM.

Q: How did the IC50 turn out when `CC(O)c1cc2nccc(-c3cc(Cl)cc4c3O[C@@H](C(=O)N3CCNCC3)C4)c2s1` (stereo partly drawn) [((2R)-5-chloro-7-(2-(1-hydroxyethyl)thieno[3,2-b]pyridin-7-yl)-2,3-dihydrobenzofuran-2-yl)(piperazin-1-yl)methanone] was run?
A: The IC50 was under 1000 nM.

Q: Which IC50 does the source give for `O=C([C@H]1Cc2cc(Cl)cc(-c3ccnc4cc(C(O)CCl)sc34)c2O1)N1CCNCC1` (stereo partly drawn) [((2R)-5-chloro-7-(2-(2-chloro-1-hydroxyethyl)thieno[3,2-b]pyridin-7-yl)-2,3-dihydrobenzofuran-2-yl)(piperazin-1-yl)methanone] here?
A: Its IC50 is under 1000 nM.

Q: `CC(O)Cc1cc2nccc(-c3cc(Cl)cc4c3O[C@@H](C(=O)N3CCNCC3)C4)c2s1` (stereo partly drawn) [((2R)-5-chloro-7-(2-(2-hydroxypropyl)thieno[3,2-b]pyridin-7-yl)-2,3-dihydrobenzofuran-2-yl)(piperazin-1-yl)methanone] was tested. Which IC50 did it give?
A: Its IC50 is under 1000 nM.

Q: For `CCC(O)C1Cc2nccc(-c3cc(Cl)cc4c3O[C@@H](C(=O)N3CCNCC3)C4)c2C1` (stereo partly drawn) [((2R)-5-chloro-7-(6-(1-hydroxypropyl)-6,7-dihydro-5H-cyclopenta[b]pyridin-4-yl)-2,3-dihydrobenzofuran-2-yl)(piperazin-1-yl)methanone], which IC50 is on record?
A: The IC50 was under 1000 nM.

Q: How did the IC50 turn out when `CCC(O)c1cc2ncnc(-c3cc(Cl)cc4c3O[C@@H](C(=O)N3CCNCC3)C4)c2s1` (stereo partly drawn) [((2R)-5-chloro-7-(6-(1-hydroxypropyl)thieno[3,2-d]pyrimidin-4-yl)-2,3-dihydrobenzofuran-2-yl)(piperazin-1-yl)methanone] was run?
A: The IC50 was under 1000 nM.

Q: For `CC1(CO)Cc2nccc(-c3cc(Cl)cc4c3O[C@@H](C(=O)N3CCNCC3)C4)c2C1` (stereo partly drawn) [((2R)-5-chloro-7-(6-(hydroxymethyl)-6-methyl-6,7-dihydro-5H-cyclopenta[b]pyridin-4-yl)-2,3-dihydrobenzofuran-2-yl)(piperazin-1-yl)methanone], which IC50 is on record?
A: Its IC50 is under 1000 nM.

Q: With `CCCC1(CO)Cc2nccc(-c3cc(Cl)cc4c3O[C@@H](C(=O)N3CCNCC3)C4)c2C1` (stereo partly drawn) [((2R)-5-chloro-7-(6-(hydroxymethyl)-6-propyl-6,7-dihydro-5H-cyclopenta[b]pyridin-4-yl)-2,3-dihydrobenzofuran-2-yl)(piperazin-1-yl)methanone] as the compound, how does the IC50 read?
A: Its IC50 is 1000 to 10000 nM.

Q: Which IC50 does the source give for `CCC1(CO)Cc2nccc(-c3cc(Cl)cc4c3O[C@@H](C(=O)N3CCNCC3)C4)c2C1` (stereo partly drawn) [((2R)-5-chloro-7-(6-ethyl-6-(hydroxymethyl)-6,7-dihydro-5H-cyclopenta[b]pyridin-4-yl)-2,3-dihydrobenzofuran-2-yl)(piperazin-1-yl)methanone] here?
A: The IC50 was 1000 to 10000 nM.

Q: How did the IC50 turn out when `CC(O)c1ccc2c(-c3cc(Cl)cc4c3O[C@@H](C(=O)N3CCNCC3)C4)ccnc2c1` (stereo partly drawn) [((2R)-5-chloro-7-(7-(1-hydroxyethyl)quinolin-4-yl)-2,3-dihydrobenzofuran-2-yl)(piperazin-1-yl)methanone] was run?
A: Its IC50 is under 1000 nM.

Q: For `CCC(O)c1ccc2c(-c3cc(Cl)cc4c3O[C@@H](C(=O)N3CCNCC3)C4)ccnc2c1` (stereo partly drawn) [((2R)-5-chloro-7-(7-(1-hydroxypropyl)quinolin-4-yl)-2,3-dihydrobenzofuran-2-yl)(piperazin-1-yl)methanone], which IC50 is on record?
A: The IC50 was 1000 to 10000 nM.

Q: `CC[C@@H](O)c1cc2nccc(-c3cc(Cl)cc4c3O[C@@H](C(=O)N3CCNCC3)C4)c2s1` [((R)-5-chloro-7-(2-((R)-1-hydroxypropyl)thieno[3,2-b]pyridin-7-yl)-2,3-dihydrobenzofuran-2-yl)(piperazin-1-yl)methanone] was tested. Which IC50 did it give?
A: Its IC50 is under 1000 nM.

Q: Which IC50 does the source give for `CC[C@H](O)c1cc2nccc(-c3cc(Cl)cc4c3O[C@@H](C(=O)N3CCNCC3)C4)c2s1` [((R)-5-chloro-7-(2-((S)-1-hydroxypropyl)thieno[3,2-b]pyridin-7-yl)-2,3-dihydrobenzofuran-2-yl)(piperazin-1-yl)methanone] here?
A: Its IC50 is under 1000 nM.

Q: With `CN(C)C1CCCN(C(=O)[C@H]2Cc3cc(Cl)cc(-c4ccnc5cc(CO)sc45)c3O2)C1` (stereo partly drawn) [((R)-5-chloro-7-(2-(hydroxymethyl)thieno[3,2-b]pyridin-7-yl)-2,3-dihydrobenzofuran-2-yl)(3-(dimethylamino)piperidin-1-yl)methanone] as the compound, how does the IC50 read?
A: The IC50 was under 1000 nM.

Q: With `CN(C)[C@@H]1CCN(C(=O)[C@H]2Cc3cc(Cl)cc(-c4ccnc5cc(CO)sc45)c3O2)C1` [((R)-5-chloro-7-(2-(hydroxymethyl)thieno[3,2-b]pyridin-7-yl)-2,3-dihydrobenzofuran-2-yl)((R)-3-(dimethylamino)pyrrolidin-1-yl)methanone] as the compound, how does the IC50 read?
A: Its IC50 is under 1000 nM.

Q: With `CN(C)[C@H]1CCN(C(=O)[C@H]2Cc3cc(Cl)cc(-c4ccnc5cc(CO)sc45)c3O2)C1` [((R)-5-chloro-7-(2-(hydroxymethyl)thieno[3,2-b]pyridin-7-yl)-2,3-dihydrobenzofuran-2-yl)((S)-3-(dimethylamino)pyrrolidin-1-yl)methanone] as the compound, how does the IC50 read?
A: Its IC50 is 1000 to 10000 nM.

Q: How did the IC50 turn out when `CN[C@H]1CCCN(C(=O)[C@H]2Cc3cc(Cl)cc(-c4ccnc5cc(CO)sc45)c3O2)C1` [((R)-5-chloro-7-(2-(hydroxymethyl)thieno[3,2-b]pyridin-7-yl)-2,3-dihydrobenzofuran-2-yl)((S)-3-(methylamino)piperidin-1-yl)methanone] was run?
A: Its IC50 is under 1000 nM.

Q: How did the IC50 turn out when `O=C([C@H]1Cc2cc(Cl)cc(-c3ccnc4cc(CO)sc34)c2O1)N1CC[C@H](O)C1` [((R)-5-chloro-7-(2-(hydroxymethyl)thieno[3,2-b]pyridin-7-yl)-2,3-dihydrobenzofuran-2-yl)((S)-3-hydroxypyrrolidin-1-yl)methanone] was run?
A: The IC50 was 10000 to 30000 nM.

Q: Which IC50 does the source give for `CN(C)C1CCCN(C(=O)[C@H]2Cc3cc(Cl)cc(-c4ccnc5ccsc45)c3O2)C1` (stereo partly drawn) [((R)-5-chloro-7-(thieno[3,2-b]pyridin-7-yl)-2,3-dihydrobenzofuran-2-yl)(3-(dimethylamino)piperidin-1-yl)methanone] here?
A: Its IC50 is under 1000 nM.

Q: For `CN(C)[C@@H]1CCN(C(=O)[C@H]2Cc3cc(Cl)cc(-c4ccnc5ccsc45)c3O2)C1` [((R)-5-chloro-7-(thieno[3,2-b]pyridin-7-yl)-2,3-dihydrobenzofuran-2-yl)((R)-3-(dimethylamino)pyrrolidin-1-yl)methanone], which IC50 is on record?
A: The IC50 was under 1000 nM.

Q: Which IC50 does the source give for `CN[C@@H]1CCCN(C(=O)[C@H]2Cc3cc(Cl)cc(-c4ccnc5ccsc45)c3O2)C1` [((R)-5-chloro-7-(thieno[3,2-b]pyridin-7-yl)-2,3-dihydrobenzofuran-2-yl)((R)-3-(methylamino)piperidin-1-yl)methanone] here?
A: Its IC50 is 10000 to 30000 nM.

Q: With `CN(C)[C@H]1CCN(C(=O)[C@H]2Cc3cc(Cl)cc(-c4ccnc5ccsc45)c3O2)C1` [((R)-5-chloro-7-(thieno[3,2-b]pyridin-7-yl)-2,3-dihydrobenzofuran-2-yl)((S)-3-(dimethylamino)pyrrolidin-1-yl)methanone] as the compound, how does the IC50 read?
A: Its IC50 is 1000 to 10000 nM.

Q: For `CN[C@H]1CCCN(C(=O)[C@H]2Cc3cc(Cl)cc(-c4ccnc5ccsc45)c3O2)C1` [((R)-5-chloro-7-(thieno[3,2-b]pyridin-7-yl)-2,3-dihydrobenzofuran-2-yl)((S)-3-(methylamino)piperidin-1-yl)methanone], which IC50 is on record?
A: The IC50 was under 1000 nM.

Q: Which IC50 does the source give for `O=C([C@H]1Cc2cc(Cl)cc(-c3ccnc4ccsc34)c2O1)N1CCN2CCCC2C1` (stereo partly drawn) [((R)-5-chloro-7-(thieno[3,2-b]pyridin-7-yl)-2,3-dihydrobenzofuran-2-yl)(hexahydropyrrolo[1,2-a]pyrazin-2(1H)-yl)methanone] here?
A: Its IC50 is 1000 to 10000 nM.

Q: Which IC50 does the source give for `O=C([C@H]1Cc2cc(Cl)cc(-c3ccnc4cc(CCN5C(=O)CCC5=O)sc34)c2O1)N1CCNCC1` [(R)-1-(2-(7-(5-chloro-2-(piperazine-1-carbonyl)-2,3-dihydrobenzofuran-7-yl)thieno[3,2-b]pyridin-2-yl)ethyl)pyrrolidine-2,5-dione] here?
A: Its IC50 is under 1000 nM.

Q: With `O=C([C@H]1Cc2cc(Cl)cc(-c3ccnc4cc(N5C(=O)CCC5=O)ccc34)c2O1)N1CCNCC1` [(R)-1-(4-(5-chloro-2-(piperazine-1-carbonyl)-2,3-dihydrobenzofuran-7-yl)quinolin-7-yl)pyrrolidine-2,5-dione] as the compound, how does the IC50 read?
A: The IC50 was under 1000 nM.

Q: With `CC[C@@H](O)c1cc2ncnc(-c3cc(Cl)cc4c3O[C@@H](c3onc5c3CNCC5)C4)c2s1` [(R)-1-(4-((R)-5-chloro-2-(4,5,6,7-tetrahydroisoxazolo[4,3-c]pyridin-3-yl)-2,3-dihydrobenzofuran-7-yl)thieno[3,2-d]pyrimidin-6-yl)propan-1-ol] as the compound, how does the IC50 read?
A: The IC50 was under 1000 nM.

Q: How did the IC50 turn out when `CN(C)Cc1ncoc1[C@H]1Cc2cc(Cl)cc(-c3ccnc4ccsc34)c2O1` [(R)-1-(5-(5-chloro-7-(thieno[3,2-b]pyridin-7-yl)-2,3-dihydrobenzofuran-2-yl)oxazol-4-yl)-N,N-dimethylmethanamine] was run?
A: Its IC50 is under 1000 nM.

Q: `CN(C)Cc1ncoc1[C@H]1Cc2cc(Cl)cc(-c3ncnc4ccsc34)c2O1` [(R)-1-(5-(5-chloro-7-(thieno[3,2-d]pyrimidin-4-yl)-2,3-dihydrobenzofuran-2-yl)oxazol-4-yl)-N,N-dimethylmethanamine] was tested. Which IC50 did it give?
A: The IC50 was 1000 to 10000 nM.

Q: Which IC50 does the source give for `OC1(c2cc3nccc(-c4cc(Cl)cc5c4O[C@@H](c4onc6c4CNCC6)C5)c3s2)CCC1` [(R)-1-(7-(5-chloro-2-(4,5,6,7-tetrahydroisoxazolo[4,3-c]pyridin-3-yl)-2,3-dihydrobenzofuran-7-yl)thieno[3,2-b]pyridin-2-yl)cyclobutan-1-ol] here?
A: Its IC50 is under 1000 nM.

Q: With `CC[C@@H](O)c1cc2nccc(-c3cc(Cl)cc4c3O[C@@H](c3onc5c3CNCC5)C4)c2s1` [(R)-1-(7-((R)-5-chloro-2-(4,5,6,7-tetrahydroisoxazolo[4,3-c]pyridin-3-yl)-2,3-dihydrobenzofuran-7-yl)thieno[3,2-b]pyridin-2-yl)propan-1-ol] as the compound, how does the IC50 read?
A: The IC50 was under 1000 nM.
